Data: patent US11589584B2, “Synergistic combination of 1,3-bis(hydroxymethyl)-5,5-dimethylimidazolidine-2,4-dione with glyoxal” (MC (US) 3 LLC, priority 2018, dated 2023)

Test system: Pseudomonas aeruginosa (ATCC 8739) and Escherichia coli (ATCC 10145) mixed microorganism culture
Assay: Synergy in the planktonic phase: 48 h biocide challenge, regrowth read by turbidity in recovery media
Assay type: cell-based
Conditions: P. aeruginosa/E. coli mixed inoculum, phosphate buffer pH 7.3, 30° C., 48 hour challenge
Experimental: […] cultures were separately prepared from glycerol stocks. First they were streak plated and validated with a microscope. Single colonies were picked and used to inoculate 200 mL shake flasks that were grown statically overnight at 30° C. (30 grams/L Tryptic Soy Broth) to produce the initial inoculum of mixed microorganism culture. A deep-well 96 well challenge plate (2 mL maximum well volume) was prepared using 900 μL/well phosphate buffer at pH 7.3, (0.0027M potassium chloride, 0.137 M sodium chloride). Inoculation took place at the start of the experiments (with a 100 μL combined inoculum, adding to the 900 μL buffer to total 1 mL/well). […]
The inoculated assay block was challenged at 30° C. for 48 hours. […] This was done in triplicate for each point (the triplicate is already present in the biocide block viz. each point is truly determined in triplicate). […]
The recovery plates were subsequently read (checked for microbial growth) at 72 hours after addition of the culture, to recovery media. Ranking of biocidal efficacy was done by recording the development of turbidity within each well (determined by visual inspection). […] Ranking was done per average value of three data points determined per experiment. (Recorded in log regrowth).
Synergy Ratio Determined Using the Following Formulae. […]

SMILES | DMDMH standalone 48 h pass (biocide used alone (QA)) [ppm] | Glyoxal standalone 48 h pass (used alone (QB)) [ppm]
CC1(C)C(=O)N(CO)C(=O)N1CO [DMDMH, 1,3-Bis(hydroxymethyl)-5,5-dimethylimidazolidine-2,4-dione] | 420 | –
O=CC=O [Glyoxal, oxaldehyde] | – | 1800
